How the values were obtained:
Type in all cases: in vivo
[1] = tested on: Hypericum chinense cuttings; test: Root inducing performance test for Hypericum chinense cuttings
Method: In this Example 3, in the same way as in Example 2, the specific ketol fatty acid (Ia) was used to test the root inducing performance for Hypericum chinense.
The compositions of the root inducing agents and the root inducing test procedure used in the test groups were the same as in Example 2. As a result of the tests, it was learned that there was 100% survival of the cuttings of Hypericum chinense in the case of use of the root inducing agent (10 μM) and IBL (50 ppm).
Note that the asterisks at the tops of the bar graphs of FIG. 1 indicate the rate of risk in measurement of the significant difference. One indicates a rate of risk of 5% or less, two a rate of risk of 1% or less, and three a rate of risk of 0.5% or less.

[2] = tested on: Hydrangea (variety name unknown) second node parts; test: Evaluation Test 1: root inducing performance on cut second node parts of Hydrangea, sprayed, on laboratory dishes; conditions: 25° C. continuous light, 20 days, five specimens, water group 1.1
Method: The second node parts of Hydrangea (variety name unknown) were cut out in August and placed on laboratory dishes, on which filter paper was laid.
Aqueous solutions of the specific ketol fatty acid (Ia) (concentrations 100 μM and 200 μM) were prepared and sprayed by sprayers on said cut Hydrangea, which were then allowed to stand covered for 2 hours. Note that the control group was sprayed with pure water and allowed to stand in the same way as the specific ketol fatty acid (Ia). Thereafter, water was added and the resultant product allowed to stand at 25° C. under continuous light for 20 days.
The average number of roots grown were counted for five specimens in each group, whereby the average for the water treatment group was 1.1, the specific ketol fatty acid (Ia) 100 μM group was 3.2, and the 200 μM group 3.1.

[3] = tested on: Prunus×yedoensis (cherry tree) cuttings; test: Root inducing performance test for Prunus×yedoensis cuttings (survival); conditions: 10 branches, water 0%
Text: 15 test groups including the root inducing agent of the present invention alone and combinations of the agent with other existing root inducing agents were used for a test of the root inducing performance for Prunus×yedoensis.
The existing root inducing agents used for the test were the indole inducing agent shown by the following formula (V) (hereinafter abbreviated as the “IBL”. See Japanese Patent Publication No. 10-77268A) and the commercially available root inducing agent Oxiberon (hereinafter abbreviated as “Oxy”, Made by Bayer CropScience).
Test Group (1): water, Test Group (2): KODA 10 μM, Test Group (3): KODA 100 μM, Test Group (4): Oxy, Test Group (5): IBL 50 ppm, Test Group (6): IBL 100 ppm, Test Group (7): KODA 10 μM+Oxy, Test Group (8): KODA 100 μM+Oxy, Test Group (9): KODA 10 μM+IBL 50 ppm, Test Group (10): KODA 100 μM+IBL 50 ppm, Test Group (11): KODA 10 μM+IBL 100 ppm, Test Group (12): KODA 100 μM+IBL 100 ppm, Test Group (13): KODA 10 μM+IBL 50 ppm+Oxy, Test Group (14): KODA 100 μM+IBL 50 ppm+Oxy, Test Group (15): KODA 100 μM+IBL 100 ppm+Oxy.
Branches of Prunus×yedoensis used for the test were purchased from Sumitomo Forestry Landscaping Co., Ltd. These were cut to lengths of 5 to 8 cm or so from the tips and transplanted into mixed soil in trays composed of red gravel and vermiculite blended in a 7:3 ratio. At this time, 10 branches were used for each test group. […]

[4] = tested on: Hydrangea (variety name unknown) branches including dormant buds; test: Evaluation Test 2: root inducing performance on Hydrangea branch cuttings including dormant buds, in soil; conditions: for Weight with soil attached / No. of roots grown/specimen: one month at 25° C.; for Weight with soil attached: water treatment 1.5; for No. of roots grown/specimen: water treatment 2.1
Method: Branches of Hydrangea (variety name unknown) including dormant buds were cut to 5 cm or so lengths in December and were transplanted into trays filled with soil composed of red gravel and vermiculite (7:3). Water or a specific ketol fatty acid (Ia) (10 μM, 100 μM) was sprayed, the specimens were then cultured in a 25° C. biochamber (12 hour bright/dark cycle) for one month. The weights in the state with the soil attached, when pulling the cuttings from the soil and the number of roots grown were measured. Note that an increase in the weight with the soil attached accompanies improvement of the soil holding rate accompanying development of fibrous roots and the proliferation of leaf buds.

[5] = tested on: Paraserianthes falcataria Becker cuttings; test: Root inducing performance test for Paraserianthes falcataria Becker cuttings; conditions: Oxiberon 0, after two months
Text: Paraserianthes falcataria Becker useful as a material for producing plywood is a tropical plant, but like other trees, cannot be transplanted by cutting as the trees age. The inventors tried transplanting Paraserianthes falcataria Becker, considered impossible to transplant by cuttings, using KODA and the existing root inducing agent Oxiberon (made by Bayer CropScience). For the cultivation soil, they used red gravel granules.

SMILES: CC/C=C\C/C=C\CC(=O)C(O)CCCCCCCC(=O)O (centres unmarked) [specific ketol fatty acid (Ia), 9-hydroxy-10-oxo-12(Z),15(Z)-octadecadienoic acid]
- amount of root inducing compared with the water-treated group (FIG. 1) ([1]; Test Group (2): KODA 10 μM): clearly increased
- amount of root inducing compared with the water-treated group (FIG. 1) ([1]; Test Group (3): KODA 100 μM): clearly increased
- average number of roots grown ([2]; 100 μM aqueous solution sprayed): 3.2
- average number of roots grown ([2]; 200 μM aqueous solution sprayed): 3.1
- number of cuttings surviving seven weeks after the start of the test ([3]; Test Group (2): KODA 10 μM): 10%
- number of cuttings surviving seven weeks after the start of the test ([3]; Test Group (3): KODA 100 μM): 10%
- Weight with soil attached ([4]; 10 μM sprayed): 6.8 g/specimen
- No. of roots grown/specimen ([4]; 10 μM sprayed): 5.3
- development of leaf buds ([4]; 10 μM, 100 μM sprayed, one month, read from Table II results): promotes development of leaf buds
- Weight with soil attached ([4]; 100 μM sprayed): 4.4 g/specimen
- No. of roots grown/specimen ([4]; 100 μM sprayed): 6.5
- Maximum root length ([5]; KODA 10 (μm)): 27.3 mm
- Root dried weight ([5]; KODA 10 (μm)): 1.8 mg
- Root Inducing rate ([5]; KODA 10 (μm), sprayed): 44%
- Maximum root length ([5]; KODA 100 (μm)): 5.3 mm
- Root Inducing rate ([5]; KODA 100 (μm)): 11%
- Root dried weight ([5]; KODA 100 (μm)): 2.9 mg

Reference: patent US20120220462A1, “INDUCING AGENT FOR PLANT ROOT” (Shiseido Company, Ltd., priority 2004, published 2012)
